The values that follow come from patent US20060079497A1, “Lavendamycin analogues and methods of synthesizing and using lavendamycin analogues” (Ball State University, priority 2004, published 2006).

In one data set the test system is tumor. The data set can be described thus: Antitumor activity (applicant's earlier studies).
Data set [1] deals with mice. The note with it: cited from earlier work.
The subject of data set [2] is mice. The data set can be described thus: Animal toxicity studies in mice (National Cancer Institute and other studies). The note with it: SCID mice, 300 mg/kg/day for 10 days.
For data set [3], the target named is T1, HIV reverse transcriptase (HIV-RT) (Human immunodeficiency virus type 1 group M subtype B, UniProt P04585).
T1 construct: 1 unit/mL of HIV-RT (Worthington Biochemical Corp., Freehold, N.J.); purchased Worthington Biochemical Corp., Freehold, N.J
The experiment in a line: HIV-RT assay (3H-TTP incorporation, modified assay of Okada et al.). Format: biochemical. The following applies: Mean IC50 ± SEM (no. of expts), 50% inhibition of HIV RT activity toward 1 unit of enzyme. As for the experimental part:
Briefly, the analogues were initially dissolved in either DMSO or HEPES buffer (pH 7.2) and then diluted to the appropriate concentration before addition to the assay mixtures. […] Several control wells without any inhibitors were also included on each microtiter plate. The reactions were allowed to proceed for 1 h at 37° C. […] A more detailed description of reaction conditions is provided below in the Examples. The concentration of drug which inhibited 50% of the enzyme activity (IC50) was determined by using the computer software program Calcusyn, which plots the dose-effect curves from the inhibition data and calculates the IC50 for each drug.
The assay procedure described below is adapted from Okada et al. (Okada, H.; Mukai, H.; Inouye, Y; Nakamura, S. “Biological Properties of Streptonigrin Derivatives II. Inhibition of Reverse Transcriptase Activity,” J. Antibiot., 1986, 39, 306-308). The lavendamycin analogs were initially dissolved in DMSO at a concentration of 1 mg/mL. Occasionally, mild sonication and heat were used to dissolve the less soluble compounds. The dissolved analogs were then serially diluted in distilled water to achieve concentrations in the final reaction mixture ranging from 0.5-15 μM. In addition to the lavendamycin analogs, the final reaction mixture contained 100 mM Tris-HCl (pH 8.0), 5 mM MgCl2, 5 mM dithiothreitol, 60 mM NaCl, 0.2 mM [^3H] thymidine triphosphate(5 μCi well), 4 μg/mL poly (rA)-oligo(dT)12-18 (Amersham Pharmacia Biotech, Piscataway, N.J.) and 1 unit/mL of HIV-RT (Worthington Biochemical Corp., Freehold, N.J.) in a total volume of 300 μL. For each assay, the reaction mixture containing 8× buffer, double distilled H2O, ^3HTTP, template-primer and HIV-RT was pre-mixed in a 15-mL sterile tube in quantities required for the particular experiment. After adding the enzyme, the reaction mixture was mixed and kept on ice. The inhibitors, either AZT(Moravek Biochemicals, Brea, Calif.), analogs or both were added to appropriate wells in a 24 well microtiter plate and ddH2O was added to each well to bring the volume of all test wells to 100 μL. Two hundred μL of the chilled reaction mixture was then added to each of the test wells, mixed, and incubated for 1 hr at 37° C. Several control wells with no inhibitors were included on each test plate. After stopping the reactions with 25 μL 0.1 M EDTA, triplicate samples of 15 μL from each test well were spotted on DE81 ion exchange filter paper squares (Whatman Paper, Maidstone, England). After drying, each filter was washed for 10 minutes three times with 5% TCA-NHPO4, three times with 0.6M NaCl-[…] Na Citrate, one time with ddH2O and one time with 95% ethanol. After drying the individual filter papers were added to 5 mL Scintiverse E (Fisher Scientific, Chicago, Ill.) scintillation fluid and the amount of 3H-TTP uptake measured as counts per minute on a Beckman liquid scintillation counter. […] The results were then analyzed using Calcusyn, a windows software program for dose effect analysis designed by T. -C. Chou and M. P. Hayball and published by Biosoft® (UK).

Data set [4] is described as follows: Cytotoxicity assay (MTT), normal murine spleen cells stimulated with concanavalin A. Format: cell-based. The note with it: normal murine spleen cells stimulated with concanavalin A; normal mouse spleen stimulated with concanavalin A inhibited by 50%; read-out: Mean CC50 (Normal Mouse Spleen) ± SEM (no. of expts). As for the experimental part: (§1) Normal murine spleen cells were washed in HBSS, cultured at 2.5×10^6 or 5×10^6 cells per mL in RPMI 1640 (with Hepes) complete medium with 2 mM-L-glutamine, 1 mM sodium pyruvate, 0.05 mM β-mercaptoethanol, penicillin, streptomycin, and amphotericin B with 10% fetal calf serum and Concanavalin A (ConA) at 2.5 μg/mL in a 96-well microtiter plate. A range of diluted analogs were added to triplicate culture wells and the cells were incubated at 37° C. in 5% CO2. Wells containing cells, media and ConA were used as controls. Forty-eight hours post incubation, 20 μL of the vital dye MTT (3-[4,5-Dimethylthiazol-2-yl]-2,5-diphenyltetrazolium bromide; thiazolyl blue) at 5 mg/mL was added to each well and the cultures re-incubated for 4-6 hours. Following centrifugation, the supernatants were decanted and the stained cells were resuspended in 100 μL of 0.4% HCl acidified isopropanol. The optical densities of each well were read at 600 nm using a Cambridge Technologies series 700 microplate reader. The human lymphocytic cell lines CCRF-CEM (ATCC: HTB 176) and H-9 (ATCC: CCL 119) were subcultured from recently cultured cells grown in complete RPMI 1640 medium as described above but without the β-mercaptoethanol and ConA at 6.25×10^5 and 2×10^6 per mL in a 96 well culture plate. These cell numbers represented log phase and early stationary phase of the freshly cultured cells. As these cell lines rapidly reproduce without mitogenic stimulation, Con A was not used. A range of analogues or media alone was added in triplicate to the cultures and the cultures incubated, pulsed with MTT, harvested and their growth estimated as described above for the murine cultures. The CC50 or the concentration of drug which inhibited cell growth as estimated by MTT formazan production to 50% of that of untreated control cells was determined by linear interpolation for each lavendamycin analog.

Data set [5] can be described thus: Cytotoxicity assay (MTT), human lymphocytic cell lines, pooled data. The following applies: human lymphocytic cell lines CCRF-CEM and H-9, pooled data, H-9 and CEM inhibited by 50%, read-out: Mean CC50 (Human Cell Lines) ± SEM (no. of expts). Format: cell-based. The procedure: as §1
Data set [6] in a line: Animal toxicity studies in mice (National Cancer Institute and other studies). The following applies: mouse, in vivo.

`COC(=O)c1cc2c([nH]c3ccccc32)c(-c2ccc3c(n2)C(=O)C(N)=C(OC)C3=O)n1` yielded a melting point of more than 280 °C.

Consider `COC(=O)c1nc(-c2ccc3c(n2)C(=O)C(N)=CC3=O)c2[nH]c3ccccc3c2c1C` [Compound 2b, lavendamycin methyl ester, reference compound], for which the antitumor activity entry in the data set on tumor is “highly active antitumor agents”.

For the compound `COC1=C(N)C(=O)c2nc(-c3nc(C(=O)O)c(C)c(-c4ccc(OC)c(OC)c4O)c3N)ccc2C1=O` [streptonigrin], the lethal dose in the data set on mice [1] is not below 0.4 mg/kg.

As to `CCCCCCCCOC(=O)c1cc2c([nH]c3ccccc32)c(-c2ccc3c(n2)C(=O)C(NC(C)=O)=CC3=O)n1` [Compound 15, 7-N-Acetyldemethyllavendamycin n-Octyl Ester], the tolerability result in the data set on mice [2] is on record as “no animal death or loss of weight”.

On to `COC(=O)c1nc(-c2ccc3c(n2)C(=O)C(N)=C(OC)C3=O)c2[nH]c3ccccc3c2c1C`, for which the melting point is more than 280 °C.

As to `Cc1c(C(=O)O)nc(-c2ccc3c(n2)C(=O)C(N)=CC3=O)c2[nH]c3ccccc3c12` [lavendamycin], the maximum tolerated dose in the data set with mice [1] (reported) was 12.8 mg/kg.

In data set [3], `NC(=O)c1cc2c([nH]c3ccccc32)c(-c2ccc3c(n2)C(=O)C(N)=CC3=O)n1` [Compound 21, Demethyllavendamycin Amide] yielded an IC50 of 20.5 ± 5 µM. The CC50 at 48 h in data set [4] was determined as 15 ± 2 µM; in data set [5] it was 17 ± 3 µM. In the data set on tumor, the antitumor activity result is “highly active antitumor agents”. Besides, the MTD in data set [6] turned out to be 400 mg/kg.

Regarding `COc1cccc2c1C(=O)c1c(O)c3c(c(O)c1C2=O)C[C@@](O)(C(=O)CO)C[C@@H]3O[C@H]1C[C@H](N)[C@H](O)[C@H](C)O1` [adriamycin], the maximally tolerated dose result in the data set on mice [1] (once a week for three weeks) is “below 10 mg/kg”.
